Source: patent US4880807A, “Nicotinoylpiperazines useful for treatment of convulsions” (Institut De Recherches Chimiques et Biologiques Appliquees …, priority 1987, dated 1989)
Where two headings read alike, the source gives them in different places.

How the values were obtained:
[1] = system: convulsions induced by pentetrazole; assay: animal or person; conditions: for ED50 in respect of convulsions induced by PTZ / ED50: 0.5 h; for ED50: Mus musculus, read-out: ED50 in respect of convulsions induced by PTZ, per os, male mice, 30 min after administration, pentetrazole 125 mg/kg i.p., dose protecting 50% of animals; for therapeutic indices compared with reference products: in words, PTZ and MCE, reference: sodium valproate and trimethadione
Excerpt: (§1) The anticonvulsant properties were investigated on male mice, thirty minutes after the oral administration of the substances to be studied, by the induction of convulsive seizures.

male mice [2] = assay: oral toxicity in mice (LD50, mortality over 14 days); conditions: male mice
Method: (§2) The toxicity of the products to be studied was investigated by the oral administration, using an esophageal tube, of each of the said products to male mice with a body weight of 18 to 22 g, divided into groups each containing 10 to 20 animals. The mortality was recorded over a 14-day period.

[3] = system: convulsions induced by supra maximal electroshock (MCE); assay: animal or person; conditions: for ED50 in respect of convulsions induced by MCE / ED50: 0.5 h; for ED50: Mus musculus, read-out: ED50 in respect of convulsions induced by MCE, per os, male mice, 30 min after administration, electrical stimulation of the cornea, dose protecting 50% of animals
Method: as §1
These seizures are caused either by the intraperitoneal injection of pentetrazole (125 mg/kg) or by electrical stimulation of the cornea (supra maximal electroshock, abbreviated to MCE).

[4] = oral toxicity in mice (LD50, mortality over 14 days); conditions: mouse, in vivo, po
Method: as §2

in vivo = assay type: in vivo; conditions: mouse, po, per os, male mice, Rota-rod 30 min after administration, dose causing 50% of animals to fall, read-out: TD50 (50% neurotoxic dose)
Excerpt: (§3) The animals (divided into groups each containing ten male mice per dose and per product) are installed on the rod and their fall is observed over the next two minutes.

male mice [5] = assay: in vivo; assay type: in vivo; conditions: for TD50 (50% neurotoxic dose): per os, male mice, Rota-rod 30 min after administration, dose causing 50% of animals to fall, 30 min
Excerpt: as §3

[6] = oral (esophageal tube), groups of 10 to 20, 14 days, Table II
[7] = LD50, oral (esophageal tube), male mice, groups of 10 to 20, 14 days, Table II
[8] = LD50 per os/ED50 per os, PTZ convulsions
[9] = LD50, per os, male mice, repeated in Table IV
[10] = LD50 per os/ED50 per os, MCE convulsions
[11] = TD50 per os/ED50 per os, MCE convulsions
[12] = TD50 per os/ED50 per os, PTZ convulsions
[13] = per os, repeated in Table IV, 20160 min

Row | Structure (SMILES) | ED50 in respect of convulsions induced by PTZ ([1]; po) | ED50 in respect of convulsions induced by MCE ([3]; po) | ED50 ([1]; po) | LD50 at 336 h [4, 7] | ED50 ([3]; po) | Therapeutic index PTZ (LD50/ED50) [1, 8] | Therapeutic index MCE (LD50/ED50) [3, 10] | also measured
1 | COc1ccc(N2CCN(C(=O)c3cccnc3)CC2)cc1 [Ex. 17] | 200 mg/kg | > 200 mg/kg | – | – | – | – | – | LD50 (male mice [2]; [6]): > 1000 mg/kg
2 | O=C(c1cccnc1)N1CCN(c2ccc(F)cc2)CC1 [Ex. 10, 4-(4-fluorophenyl)-1-nicotinoylpiperazine] | – | – | 62 mg/kg | 600 mg/kg | 75 mg/kg | – | – | –
3 | Cc1ccc(Cl)cc1N1CCN(C(=O)c2cccnc2)CC1 [Ex. 24, 4-(5-chloro-2-methylphenyl)-1-nicotinoylpiperazine] | – | – | 63 mg/kg | > 1000 mg/kg | 83 mg/kg | > 15.9 | > 12.0 | LD50 at 336 h [4, 9]: > 1000 mg/kg; TD50 at 0.5 h (in vivo; rota-rod): 525 mg/kg; Protection index MCE (TD50/ED50) (male mice [5]; [11]): 6.3; Protection index PTZ (TD50/ED50) (male mice [5]; [12]): 8.3
4 | Cc1cccc(Cl)c1N1CCN(C(=O)c2cccnc2)CC1 [Ex. 26] | – | – | > 200 mg/kg | > 1000 mg/kg | > 200 mg/kg | – | – | –
5 | Cc1cc(Cl)ccc1N1CCN(C(=O)c2cccnc2)CC1 [Ex. 23, 4-(4-chloro-2-methylphenyl)-1-nicotinoylpiperazine] | 124 mg/kg | > 200 mg/kg | – | – | – | > 8.1 | < 5.0 | LD50 (male mice [2]; [6]): > 1000 mg/kg; LD50 (male mice [2]; [13]): > 1000 mg/kg; Protection index MCE (TD50/ED50) (male mice [5]; [11]): 4.5; Protection index PTZ (TD50/ED50) (male mice [5]; [12]): 7.4; TD50 (50% neurotoxic dose) (male mice [5]): 650 mg/kg
6 | CC(=O)c1ccc(N2CCN(C(=O)c3cccnc3)CC2)cc1 [Ex. 20] | – | – | > 200 mg/kg | > 1000 mg/kg | > 200 mg/kg | – | – | –
7 | O=C(c1cccnc1)N1CCN(c2ccccc2C(F)(F)F)CC1 [Ex. 12] | – | – | > 200 mg/kg | > 1000 mg/kg | > 200 mg/kg | – | – | –
8 | Cc1cc(Cl)ccc1N1CCN(C(=O)c2cccnc2)CC1 [Ex. 22, 4-(4-chloro-2-methylphenyl)-1-nicotinoylpiperazine] | 55 mg/kg | 87 mg/kg | – | 540 mg/kg | – | 9.8 | 6.2 | LD50 at 336 h [4, 9]: 540 mg/kg; Protection index MCE (TD50/ED50) (male mice [5]; [11]): 3.4; Protection index PTZ (TD50/ED50) (male mice [5]; [12]): 5.4; TD50 (50% neurotoxic dose) (male mice [5]): 300 mg/kg
9 | CCOc1cccc(N2CCN(C(=O)c3cccnc3)CC2)c1 [Ex. 18] | – | – | 72 mg/kg | 540 mg/kg | 118 mg/kg | 7.5 | 4.6 | LD50 at 336 h [4, 9]: 540 mg/kg; TD50 at 0.5 h (in vivo; rota-rod): 291 mg/kg; Protection index MCE (TD50/ED50) (male mice [5]; mouse, in vivo, po): 2.5; Protection index PTZ (TD50/ED50) (male mice [5]; mouse, in vivo, po): 4.0
10 | O=C(c1cccnc1)N1CCN(c2cccc(C(F)(F)F)c2)CC1 [Ex. 6, 1-nicotinoyl-4-(3-trifluoromethylphenyl)piperazine] | – | – | 13 mg/kg | 422 mg/kg | 20 mg/kg | 32.5 | 21.1 | therapeutic indices compared with reference products [1]: better than those of the reference products; LD50 at 336 h [4, 9]: 422 mg/kg; TD50 at 0.5 h (in vivo; rota-rod): 119 mg/kg; Protection index MCE (TD50/ED50) (male mice [5]; [11]): 6.0; Protection index PTZ (TD50/ED50) (male mice [5]; [12]): 9.1; protection indices compared with reference products (male mice [5]; mouse, in vivo): better than those of the reference products
11 | Cc1ccc(Cl)cc1N1CCN(C(=O)c2cccnc2)CC1 [Ex. 25, 4-(5-chloro-2-methylphenyl)-1-nicotinoylpiperazine] | 79 mg/kg | 87 mg/kg | – | – | – | > 12.7 | > 11.5 | LD50 (male mice [2]; [6]): > 1000 mg/kg; LD50 (male mice [2]; [13]): > 1000 mg/kg; Protection index MCE (TD50/ED50) (male mice [5]; [11]): 4.1; Protection index PTZ (TD50/ED50) (male mice [5]; [12]): 4.5; TD50 (50% neurotoxic dose) (male mice [5]): 355 mg/kg
12 | Cl.Cl.O=C(c1cccnc1)N1CCN(c2cccc(C(F)(F)F)c2)CC1 [Ex. 1, 1-nicotinoyl-4-(3-trifluoromethylphenyl)piperazine dihydrochloride] | – | – | 17 mg/kg | 575 mg/kg | 19 mg/kg | 33.8 | 30.2 | therapeutic indices compared with reference products [1]: better than those of the reference products; LD50 at 336 h [4, 9]: 575 mg/kg; TD50 at 0.5 h (in vivo; rota-rod): 154 mg/kg; Protection index MCE (TD50/ED50) (male mice [5]; [11]): 8.1; Protection index PTZ (TD50/ED50) (male mice [5]; [12]): 9.1; protection indices compared with reference products (male mice [5]; mouse, in vivo): better than those of the reference products
13 | Cc1cccc(C)c1N1CCN(C(=O)c2cccnc2)CC1 [Ex. 30] | – | – | 138 mg/kg | > 1000 mg/kg | – | – | – | –
14 | Cc1ccccc1N1CCN(C(=O)c2cccnc2)CC1 [Ex. 13] | – | – | 161 mg/kg | – | 200 mg/kg | 6.2 | 5.0 | LD50 at 336 h [4]: 1000 mg/kg; TD50 at 0.5 h (in vivo; in vivo): 800 mg/kg; Protection index MCE (TD50/ED50) (male mice [5]; [11]): 4.0; Protection index PTZ (TD50/ED50) (male mice [5]; [12]): 4.9
15 | CCOc1cccc(N2CCN(C(=O)c3cccnc3)CC2)c1 [Ex. 19] | 142 mg/kg | 150 mg/kg | – | – | – | – | 6.7 | Therapeutic index PTZ (LD50/ED50) ([1]; mouse, in vivo, po): 7.0; Protection index MCE (TD50/ED50) (male mice [5]; mouse, in vivo, po): 1.7; Protection index PTZ (TD50/ED50) (male mice [5]; mouse, in vivo, po): 1.8; TD50 (50% neurotoxic dose) (male mice [5]): 250 mg/kg
16 | O=C(c1cccnc1)N1CCN(c2ccccc2)CC1 [Ex. 28] | > 200 mg/kg | > 200 mg/kg | – | – | – | – | – | LD50 (male mice [2]; [6]): > 1000 mg/kg
17 | O=C(c1cccnc1)N1CCN(c2ccccc2)CC1 [Ex. 27] | – | – | 156 mg/kg | > 1000 mg/kg | > 200 mg/kg | – | – | –
18 | CN1C(=O)OC(C)(C)C1=O [TRIM, trimethadione, reference compound] | – | – | 251 mg/kg | – | 500 mg/kg | 8.7 | 4.4 | LD50 at 336 h [4]: 2180 mg/kg; LD50 at 336 h [4, 9]: 2180 mg/kg; TD50 at 0.5 h (in vivo; in vivo): 1000 mg/kg; Protection index MCE (TD50/ED50) (male mice [5]; mouse, in vivo, po): 2.0; Protection index PTZ (TD50/ED50) (male mice [5]; mouse, in vivo, po): 4.0
19 | COc1ccc(N2CCN(C(=O)c3cccnc3)CC2)cc1 [Ex. 16] | – | – | 120 mg/kg | > 1000 mg/kg | > 200 mg/kg | – | – | –
20 | Cc1ccccc1N1CCN(C(=O)c2cccnc2)CC1 [Ex. 14] | 107 mg/kg | > 200 mg/kg | – | > 1000 mg/kg | – | – | – | Therapeutic index PTZ (LD50/ED50) ([1]; mouse, in vivo, po): > 10.0; LD50 at 336 h [4, 9]: > 1000 mg/kg; Therapeutic index MCE (LD50/ED50) ([3]; mouse, in vivo, po): < 5.0; TD50 at 0.5 h (in vivo; rota-rod): 635 mg/kg; Protection index MCE (TD50/ED50) (male mice [5]; mouse, in vivo, po): < 3.0; Protection index PTZ (TD50/ED50) (male mice [5]; mouse, in vivo, po): 5.9
21 | COc1cccc(N2CCN(C(=O)c3cccnc3)CC2)c1 [Ex. 15] | – | – | 183 mg/kg | > 1000 mg/kg | > 200 mg/kg | – | – | –
22 | O=C(c1cccnc1)N1CCN(c2ccccc2F)CC1 [Ex. 9] | > 200 mg/kg | > 200 mg/kg | – | – | – | – | – | LD50 (male mice [2]; [6]): > 1000 mg/kg
23 | CCOc1ccccc1N1CCN(C(=O)c2cccnc2)CC1 [Ex. 5] | – | – | > 200 mg/kg | 1000 mg/kg | > 200 mg/kg | – | – | –
24 | O=C(c1cccnc1)N1CCN(c2ccccc2F)CC1 [Ex. 8] | – | – | 180 mg/kg | 1000 mg/kg | 180 mg/kg | 5.6 | 5.6 | LD50 at 336 h [4, 9]: 1000 mg/kg; TD50 at 0.5 h (in vivo; rota-rod): 500 mg/kg; Protection index MCE (TD50/ED50) (male mice [5]; mouse, in vivo, po): 2.8; Protection index PTZ (TD50/ED50) (male mice [5]; mouse, in vivo, po): 2.8
25 | O=C(c1cccnc1)N1CCN(c2ccccc2Cl)CC1 [Ex. 4] | – | – | 160 mg/kg | > 1000 mg/kg | 200 mg/kg | – | – | –
26 | O=C(c1cccnc1)N1CCN(c2ccc(C(F)(F)F)cc2)CC1 [Ex. 7] | – | – | > 200 mg/kg | > 1000 mg/kg | > 200 mg/kg | – | – | –
27 | O=C(c1cccnc1)N1CCN(c2cccc(Cl)c2)CC1 [Ex. 2, 4-(3-chlorophenyl)-1-nicotinoylpiperazine] | – | – | 50 mg/kg | 501 mg/kg | 78 mg/kg | – | – | –
28 | Cc1cccc(N2CCN(C(=O)c3cccnc3)CC2)c1C [Ex. 3] | – | – | 110 mg/kg | > 1000 mg/kg | > 200 mg/kg | – | – | –
29 | O=C(c1cccnc1)N1CCN(c2ccc(F)cc2)CC1 [Ex. 11, 4-(4-fluorophenyl)-1-nicotinoylpiperazine] | 68 mg/kg | 75 mg/kg | – | – | – | – | – | LD50 at 336 h [4]: 625 mg/kg
